Test results published in ChEMBL document CHEMBL1201862, “PubChem BioAssay data set” (2004).
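Exposure lasted 48 hours, with cells grown in 96-well plates and compounds tested at five concentrations. GI50 marks 50% less growth.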 Calls of active or inactive are those of the source. Rule as the data show it: active = GI50 up to about 1.1 µM and inactive = higher.

Experiments:
Experiment in all cases: growth of human tumour cells (NCI), 48 h
T47D = test system: T47D
Hs-578T = test system: Hs-578T
NCI-H226 = test system: NCI-H226
A549 = test system: A549
COLO 205 = test system: COLO 205
UACC-62 = test system: UACC-62
786-0 = test system: 786-0
MOLT-4 = test system: MOLT-4
Malme-3M = test system: Malme-3M
PC-3 = test system: PC-3
UACC-257 = test system: UACC-257
ACHN = test system: ACHN
OVCAR-4 = test system: OVCAR-4
UO-31 = test system: UO-31
HL-60 = test system: HL-60
U-251 = test system: U-251
SR = test system: SR
OVCAR-3 = test system: OVCAR-3
MDA-MB-231 = test system: MDA-MB-231
BT-549 = test system: BT-549

Row | SMILES | GI50 (T47D) | GI50 (Hs-578T) | GI50 (NCI-H226) | GI50 (A549) | GI50 (COLO 205) | GI50 (UACC-62) | GI50 (786-0) | GI50 (MOLT-4) | GI50 (Malme-3M) | GI50 (PC-3) | GI50 (UACC-257) | GI50 (ACHN) | GI50 (OVCAR-4) | GI50 (UO-31) | GI50 (HL-60) | GI50 (U-251) | GI50 (SR) | GI50 (OVCAR-3) | GI50 (MDA-MB-231) | GI50 (BT-549)
1 | CCOc1cccc(-c2cc(O)c3cc4c(cc3n2)OCO4)c1 | 54.7 µM (inactive) | 0.163 µM (active) | 0.438 µM (active) | 0.378 µM (active) | 0.206 µM (active) | 0.043 µM (active) | 0.197 µM (active) | 0.296 µM (active) | 0.141 µM (active) | 0.112 µM (active) | 1.95 µM (inactive) | 0.51 µM (active) | 82 µM (inactive) | 0.339 µM (active) | 0.044 µM (active) | 0.0619 µM (active) | 0.0476 µM (active) | 0.182 µM (active) | 0.243 µM (active) | –
2 | COc1ccc2c(C)cc(C)nc2n1 | > 100 µM (inactive) | – | – | > 100 µM (inactive) | > 100 µM (inactive) | > 100 µM (inactive) | > 100 µM (inactive) | > 100 µM (inactive) | > 100 µM (inactive) | > 100 µM (inactive) | > 100 µM (inactive) | > 100 µM (inactive) | > 100 µM (inactive) | > 100 µM (inactive) | > 100 µM (inactive) | > 100 µM (inactive) | > 100 µM (inactive) | > 100 µM (inactive) | > 100 µM (inactive) | > 100 µM (inactive)
3 | Cc1ccsc1/C=N/Nc1ccc2ccccc2n1 | > 100 µM (inactive) | 37.7 µM (inactive) | 35.9 µM (inactive) | 7.43 µM (inactive) | 27.7 µM (inactive) | 25.1 µM (inactive) | 30.8 µM (inactive) | 8.04 µM (inactive) | – | 19.6 µM (inactive) | 6.12 µM (inactive) | 15.1 µM (inactive) | 29.7 µM (inactive) | 26.7 µM (inactive) | 11.8 µM (inactive) | 49 µM (inactive) | – | 10.4 µM (inactive) | – | 34.4 µM (inactive)
4 | Cn1c(=O)c2c(nc3n2CCCC(=O)N3CC(O)CCl)n(C)c1=O (stereo not drawn) | > 100 µM (inactive) | > 100 µM (inactive) | > 100 µM (inactive) | > 100 µM (inactive) | > 100 µM (inactive) | > 100 µM (inactive) | > 100 µM (inactive) | > 100 µM (inactive) | – | > 100 µM (inactive) | > 100 µM (inactive) | > 100 µM (inactive) | > 100 µM (inactive) | > 100 µM (inactive) | > 100 µM (inactive) | > 100 µM (inactive) | 50.1 µM (inactive) | > 100 µM (inactive) | – | > 100 µM (inactive)
5 | Nc1n[nH]c2nc3ccc(C(F)(F)F)cc3nc12 | – | 28.5 µM (inactive) | – | 30.5 µM (inactive) | 16 µM (inactive) | 21 µM (inactive) | 21 µM (inactive) | 43.5 µM (inactive) | 71.6 µM (inactive) | 25.9 µM (inactive) | 21.8 µM (inactive) | 25.1 µM (inactive) | 42.6 µM (inactive) | 17.6 µM (inactive) | – | 39.5 µM (inactive) | 49.4 µM (inactive) | – | 43.6 µM (inactive) | 23.1 µM (inactive)
6 | CCN(CC)c1ccc2c(c1)OC(=O)C(c1nnc(-c3ccc([N+](=O)[O-])cc3)o1)C2 (stereo not drawn) | – | > 100 µM (inactive) | > 100 µM (inactive) | > 100 µM (inactive) | > 100 µM (inactive) | > 100 µM (inactive) | > 100 µM (inactive) | > 100 µM (inactive) | > 100 µM (inactive) | > 100 µM (inactive) | > 100 µM (inactive) | > 100 µM (inactive) | > 100 µM (inactive) | > 100 µM (inactive) | 84.5 µM (inactive) | > 100 µM (inactive) | – | > 100 µM (inactive) | > 100 µM (inactive) | > 100 µM (inactive)
7 | CCNC(=O)C1CCCN1C(=O)C(CCCN=C(N)N)NC(=O)C(CC(C)C)NC(=O)C(Cc1c[nH]c2ccccc12)NC(=O)C(Cc1ccc(O)cc1)NC(=O)C(CO)NC(=O)C(Cc1c[nH]c2ccccc12)NC(=O)C(Cc1c[nH]cn1)NC(=O)C1CCC(=O)N1 (stereo not drawn) | – | > 100 µM (inactive) | > 100 µM (inactive) | > 100 µM (inactive) | > 100 µM (inactive) | > 100 µM (inactive) | > 100 µM (inactive) | > 100 µM (inactive) | > 100 µM (inactive) | > 100 µM (inactive) | > 100 µM (inactive) | > 100 µM (inactive) | > 100 µM (inactive) | > 100 µM (inactive) | – | > 100 µM (inactive) | > 100 µM (inactive) | > 100 µM (inactive) | > 100 µM (inactive) | > 100 µM (inactive)
8 | Cc1ccc(S(=O)(=O)N2CCCSCCN(S(=O)(=O)c3ccc(C)cc3)CCCSCC2)cc1 | 17.5 µM (inactive) | > 100 µM (inactive) | > 100 µM (inactive) | > 100 µM (inactive) | > 100 µM (inactive) | > 100 µM (inactive) | > 100 µM (inactive) | > 100 µM (inactive) | – | – | > 100 µM (inactive) | > 100 µM (inactive) | > 100 µM (inactive) | 51.8 µM (inactive) | > 100 µM (inactive) | > 100 µM (inactive) | – | > 100 µM (inactive) | > 100 µM (inactive) | > 100 µM (inactive)
9 | C=C(C)C(=O)OC1CC2(C)OC(=CC2=O)C(C)CC2OC(=O)C(=C)C12 (stereo not drawn) | 4.57 µM (inactive) | – | 19.1 µM (inactive) | 18.9 µM (inactive) | 1.23 µM (inactive) | 10.8 µM (inactive) | 3.24 µM (inactive) | 2.9 µM (inactive) | 3.44 µM (inactive) | 14 µM (inactive) | 12.3 µM (inactive) | 2.8 µM (inactive) | 3.99 µM (inactive) | 4.9 µM (inactive) | 0.461 µM (active) | 16.5 µM (inactive) | 1.63 µM (inactive) | 5.15 µM (inactive) | 13.5 µM (inactive) | 6.25 µM (inactive)
10 | CN(C)CCCNC(=O)c1cc(NC(=O)c2cc(NC(=O)CCCn3c4ccccc4c4ccccc43)cn2C)cn1C | 7.03 µM (inactive) | 15.5 µM (inactive) | – | 17.5 µM (inactive) | 2.15 µM (inactive) | – | 13.5 µM (inactive) | 2.02 µM (inactive) | 6.03 µM (inactive) | 19.2 µM (inactive) | 15.9 µM (inactive) | 27.2 µM (inactive) | 15.5 µM (inactive) | 25.6 µM (inactive) | 11.6 µM (inactive) | 11.4 µM (inactive) | – | 13.4 µM (inactive) | – | 15 µM (inactive)
11 | CC(C)=C1C(=O)c2c(Cl)sc(Cl)c2C1=O | 31 µM (inactive) | 32.8 µM (inactive) | 35.6 µM (inactive) | 26.1 µM (inactive) | 20.9 µM (inactive) | 19.9 µM (inactive) | 22.9 µM (inactive) | 36.6 µM (inactive) | 19 µM (inactive) | – | 21.3 µM (inactive) | 21 µM (inactive) | 14.5 µM (inactive) | 23.4 µM (inactive) | 31.3 µM (inactive) | 22.2 µM (inactive) | 27.2 µM (inactive) | 29.3 µM (inactive) | 27.6 µM (inactive) | 22 µM (inactive)
12 | C=C[C@@H]1C[C@]2(C(=O)OC)Cc3nc4ccccc4nc3CC(C(=O)OC)=C2O1 | 85.5 µM (inactive) | > 100 µM (inactive) | – | > 100 µM (inactive) | 35.2 µM (inactive) | > 100 µM (inactive) | > 100 µM (inactive) | 42.5 µM (inactive) | > 100 µM (inactive) | 62.4 µM (inactive) | 76.7 µM (inactive) | > 100 µM (inactive) | > 100 µM (inactive) | – | 80.5 µM (inactive) | 92.7 µM (inactive) | – | 23 µM (inactive) | 92.9 µM (inactive) | 57.1 µM (inactive)
13 | CC1(C)C[C@@H]2C1CCC1(C)CC2(O)CC[C@H]1O (stereo partly drawn) | > 100 µM (inactive) | > 100 µM (inactive) | > 100 µM (inactive) | > 100 µM (inactive) | > 100 µM (inactive) | > 100 µM (inactive) | > 100 µM (inactive) | > 100 µM (inactive) | > 100 µM (inactive) | > 100 µM (inactive) | > 100 µM (inactive) | > 100 µM (inactive) | > 100 µM (inactive) | > 100 µM (inactive) | > 100 µM (inactive) | > 100 µM (inactive) | > 100 µM (inactive) | > 100 µM (inactive) | – | > 100 µM (inactive)
14 | CC1CCCN(CP(=O)(c2ccccc2)c2ccccc2)C1 (stereo not drawn) | – | > 100 µM (inactive) | > 100 µM (inactive) | > 100 µM (inactive) | > 100 µM (inactive) | > 100 µM (inactive) | > 100 µM (inactive) | – | > 100 µM (inactive) | > 100 µM (inactive) | > 100 µM (inactive) | > 100 µM (inactive) | 94.4 µM (inactive) | > 100 µM (inactive) | 13.6 µM (inactive) | > 100 µM (inactive) | > 100 µM (inactive) | 78.2 µM (inactive) | > 100 µM (inactive) | > 100 µM (inactive)
15 | Oc1ccc(-c2nc3ccc(F)cc3s2)cc1 | 15.1 µM (inactive) | – | 18.6 µM (inactive) | 19.8 µM (inactive) | 16.2 µM (inactive) | 17.6 µM (inactive) | 18.5 µM (inactive) | 27 µM (inactive) | 18.5 µM (inactive) | 21.4 µM (inactive) | 17.1 µM (inactive) | 19.1 µM (inactive) | 23 µM (inactive) | 15.2 µM (inactive) | 22.4 µM (inactive) | 19.2 µM (inactive) | 26.1 µM (inactive) | 30.7 µM (inactive) | 20.8 µM (inactive) | 18.1 µM (inactive)
